Laboratory results from ChEMBL document CHEMBL1201862, “PubChem BioAssay data set” (2004).
Calls of active or inactive are those of the source.

Key:
Vero [1] = test: cells; format: functional; details: Chlorocebus sabaeus
Vero [2] = test: cells; format: functional, cell-based; details: Chlorocebus sabaeus
[3] = molecular target: DNA damage-inducible transcript 3 protein (Mus musculus, UniProt P35639); format: functional, Cricetulus griseus
Troponin, cardiac muscle = Troponin, cardiac muscle (Homo sapiens, UniProt P19429+P45379+P63316); test: Fluorescence-based biochemical high throughput dose response assay for activators of the calcium sensitivity of cardiac Regulated Thin Filaments (RTF). [Related pubchem assays (depositor defined):AID493008, AID493018, AID504382, AID504383]; format: protein-complex assay
CAAX prenyl protease 2 [4] = molecular target: T1, CAAX prenyl protease 2 (Saccharomyces cerevisiae S288c, UniProt Q03530); format: biochemical
T1 sequence (Q03530 whole entry): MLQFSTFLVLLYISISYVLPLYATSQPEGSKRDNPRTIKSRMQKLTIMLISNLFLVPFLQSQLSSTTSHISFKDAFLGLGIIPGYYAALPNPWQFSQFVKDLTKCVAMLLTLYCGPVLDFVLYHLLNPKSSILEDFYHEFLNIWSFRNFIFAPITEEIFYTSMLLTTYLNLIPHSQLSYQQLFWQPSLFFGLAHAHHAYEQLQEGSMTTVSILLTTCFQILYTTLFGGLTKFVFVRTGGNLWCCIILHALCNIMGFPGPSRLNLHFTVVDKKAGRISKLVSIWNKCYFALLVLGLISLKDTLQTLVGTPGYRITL

CAAX prenyl protease 2 [5] = molecular target: T2, CAAX prenyl protease 2 (Homo sapiens, UniProt Q9Y256); test: inhibition of Ras-converting CAAX protease Rce1 – biochemical, yeast membranes, quenched-peptide fluorescence, cherry-pick, dose response (AID 588849)
T2 sequence (Q9Y256 whole entry): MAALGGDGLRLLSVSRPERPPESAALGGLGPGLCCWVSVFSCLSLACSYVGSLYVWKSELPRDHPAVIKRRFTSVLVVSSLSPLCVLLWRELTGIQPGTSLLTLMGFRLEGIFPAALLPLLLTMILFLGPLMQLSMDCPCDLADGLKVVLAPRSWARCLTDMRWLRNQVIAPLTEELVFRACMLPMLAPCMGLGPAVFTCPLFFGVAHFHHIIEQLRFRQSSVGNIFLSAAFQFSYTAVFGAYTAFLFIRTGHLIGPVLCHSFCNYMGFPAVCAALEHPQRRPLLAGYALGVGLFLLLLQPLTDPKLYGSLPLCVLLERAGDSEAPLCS

cells [6] = test: cells
[7] = molecular target: T3, Ubiquitin-conjugating enzyme E2 N (Homo sapiens, UniProt P61088); format: functional
T3 sequence (P61088 whole entry): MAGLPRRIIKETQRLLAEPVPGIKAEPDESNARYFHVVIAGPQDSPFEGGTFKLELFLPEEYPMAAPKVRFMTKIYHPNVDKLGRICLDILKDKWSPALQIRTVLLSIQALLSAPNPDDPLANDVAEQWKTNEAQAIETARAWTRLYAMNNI

[8] = NIH3T3 cell viability loss – ATP luminescence, mouse fibroblasts, counter-screen, dose response (AID 2010); format: functional, cell-based;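 note: cells exposed to compound for about 90 hours before reading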
Bcl-2-related protein A1 = molecular target: T4, Bcl-2-related protein A1 (Mus musculus, UniProt Q07440); format: functional;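 note: confirmatory dose–response counterscreen on Bfl-1, used to check hits from a UBC13 polyubiquitin inhibitor campaign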
T4 sequence (Q07440 whole entry): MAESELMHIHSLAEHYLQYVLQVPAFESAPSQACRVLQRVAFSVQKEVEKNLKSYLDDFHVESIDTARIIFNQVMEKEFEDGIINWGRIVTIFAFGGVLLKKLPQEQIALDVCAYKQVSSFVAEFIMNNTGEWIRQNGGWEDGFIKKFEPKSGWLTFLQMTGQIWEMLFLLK

[9] = Trypanosoma cruzi growth suppression in host cells – NIH3T3 host cells, beta-gal luminescence, confirmation (AID 2044); format: functional, cell-based;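 note: intracellular parasites grown in NIH/3T3 mouse fibroblasts as host cells; luminescent beta-galactosidase reporter signal from transgenic T. cruzi replicating inside host cells; inhibitors lower the luminescence signal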
[10] = molecular target: T3, Ubiquitin-conjugating enzyme E2 N; format: functional; remark: listed apart in the source
[11] = non-specific 3'UTR reporter inhibition in Clone20-Shn3RL – cell-based, Renilla luciferase, cherry-picked, counter-screen for Shn3 inhibitor project, dose response (AID 624133); format: functional
[12] = reduction of Shn3 3'UTR-driven luciferase in osteoblasts – cell-based, Clone20 osteoblasts, firefly luciferase, cherry-picked, dose response (AID 624132); format: functional;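 note: firefly luciferase luminescence from reporter carrying the Shn3 3'UTR in osteoblasts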
Protein Wnt-3a = Protein Wnt-3a (Mus musculus, UniProt P27467); test: antagonism of Wnt3a pathway luciferase reporter – Wnt-LIGHT cells, luminescence, selectivity assay for Gli-SUFU antagonist project, dose response (AID 651570); format: functional; details: read-out: IC50_Mean;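 note: Wnt-LIGHT reporter cells stimulated with conditioned medium from Wnt3a-producing cells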
Sequence of Protein Wnt-3a (P27467 whole entry): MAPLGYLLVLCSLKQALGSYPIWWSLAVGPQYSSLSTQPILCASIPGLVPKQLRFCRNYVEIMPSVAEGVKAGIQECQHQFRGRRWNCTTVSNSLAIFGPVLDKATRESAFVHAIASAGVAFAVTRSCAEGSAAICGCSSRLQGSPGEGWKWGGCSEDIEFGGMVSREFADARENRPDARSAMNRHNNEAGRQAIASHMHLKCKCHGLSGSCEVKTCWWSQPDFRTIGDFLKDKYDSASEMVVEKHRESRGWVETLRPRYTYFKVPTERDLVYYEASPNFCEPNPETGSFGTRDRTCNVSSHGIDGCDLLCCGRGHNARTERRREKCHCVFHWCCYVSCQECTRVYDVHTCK

[13] = decrease of insulin promoter-GFP reporter – imaging, high-content screening, mouse beta cells (AID 1628); format: functional; details: MIN6
[14] = MIN6 cell viability loss – mouse insulinoma, cytotoxicity control, dose response (AID 2122); format: functional;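 note: confirmatory high-throughput counterscreen run to flag cytotoxic compounds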
[15] = molecular target: Glucose-6-phosphate 1-dehydrogenase (Homo sapiens, UniProt P11413); test: inhibition of Homo sapiens G6PD, dose series – biochemical, fluorescence, selectivity assay for P. falciparum G6PD inhibitor project, dose response (AID 504792); format: functional
Sequence of Glucose-6-phosphate 1-dehydrogenase (P11413 whole entry): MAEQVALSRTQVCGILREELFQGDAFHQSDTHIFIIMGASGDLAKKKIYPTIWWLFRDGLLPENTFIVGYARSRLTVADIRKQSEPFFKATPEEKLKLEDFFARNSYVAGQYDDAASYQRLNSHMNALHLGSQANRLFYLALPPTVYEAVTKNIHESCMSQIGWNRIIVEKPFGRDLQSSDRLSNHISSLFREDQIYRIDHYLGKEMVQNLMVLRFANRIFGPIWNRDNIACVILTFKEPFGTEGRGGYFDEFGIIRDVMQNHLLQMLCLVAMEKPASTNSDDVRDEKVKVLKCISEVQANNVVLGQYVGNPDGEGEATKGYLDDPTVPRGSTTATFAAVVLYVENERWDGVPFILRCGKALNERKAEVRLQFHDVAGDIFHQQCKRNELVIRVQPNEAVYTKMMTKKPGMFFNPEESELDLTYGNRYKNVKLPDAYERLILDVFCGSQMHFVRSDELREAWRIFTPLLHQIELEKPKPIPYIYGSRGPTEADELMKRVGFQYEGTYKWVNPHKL

Protein skinhead-1 = molecular target: T5, Protein skinhead-1 (Caenorhabditis elegans, UniProt P34707); format: functional
T5 sequence (P34707 whole entry): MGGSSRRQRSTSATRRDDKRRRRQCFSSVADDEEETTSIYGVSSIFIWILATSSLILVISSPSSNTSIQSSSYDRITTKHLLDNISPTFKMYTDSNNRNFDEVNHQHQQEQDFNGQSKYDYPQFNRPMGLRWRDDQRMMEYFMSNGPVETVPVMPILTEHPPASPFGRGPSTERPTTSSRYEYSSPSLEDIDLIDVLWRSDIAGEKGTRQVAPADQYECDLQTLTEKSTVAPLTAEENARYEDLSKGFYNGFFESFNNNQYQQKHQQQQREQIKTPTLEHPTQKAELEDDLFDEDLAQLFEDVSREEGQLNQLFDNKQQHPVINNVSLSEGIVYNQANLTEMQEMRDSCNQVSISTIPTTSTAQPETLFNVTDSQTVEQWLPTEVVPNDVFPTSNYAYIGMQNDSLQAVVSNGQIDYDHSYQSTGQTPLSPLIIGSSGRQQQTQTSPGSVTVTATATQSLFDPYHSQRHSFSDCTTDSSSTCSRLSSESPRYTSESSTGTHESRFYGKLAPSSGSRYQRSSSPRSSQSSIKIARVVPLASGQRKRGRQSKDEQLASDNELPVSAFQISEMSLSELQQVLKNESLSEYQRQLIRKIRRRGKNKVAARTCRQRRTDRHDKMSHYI

[16] = viability of uninfected HEp-2 cells – cell-based, HTS, cytotoxicity control for RSV inhibitor project, dose response (AID 2410); format: functional; details: human respiratory syncytial virus
Leucine aminopeptidase = molecular target: T6, Leucine aminopeptidase (Plasmodium falciparum 3D7, UniProt Q8IL11); test: P. falciparum M17LAP inhibitors, primary screen, biochemical, fluorogenic H-Leu-NHMec substrate, 1536-well (AID 1619); format: functional
T6 sequence (Q8IL11 whole entry): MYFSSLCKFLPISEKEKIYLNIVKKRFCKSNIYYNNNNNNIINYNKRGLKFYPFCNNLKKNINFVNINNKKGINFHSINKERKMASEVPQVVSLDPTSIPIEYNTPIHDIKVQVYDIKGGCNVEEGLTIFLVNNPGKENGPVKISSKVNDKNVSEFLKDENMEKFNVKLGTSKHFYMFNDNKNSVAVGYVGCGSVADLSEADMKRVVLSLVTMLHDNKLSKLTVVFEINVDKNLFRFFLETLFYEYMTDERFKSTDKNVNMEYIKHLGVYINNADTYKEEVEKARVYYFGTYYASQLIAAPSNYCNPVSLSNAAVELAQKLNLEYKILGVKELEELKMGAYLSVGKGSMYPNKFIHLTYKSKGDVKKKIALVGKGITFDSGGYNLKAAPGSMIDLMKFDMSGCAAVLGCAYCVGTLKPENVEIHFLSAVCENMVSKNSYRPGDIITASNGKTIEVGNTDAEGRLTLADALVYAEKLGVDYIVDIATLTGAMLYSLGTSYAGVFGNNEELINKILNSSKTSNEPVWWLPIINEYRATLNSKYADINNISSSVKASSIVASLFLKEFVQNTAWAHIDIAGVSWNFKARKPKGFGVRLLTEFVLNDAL

[17] = molecular target: T7, Alkaline phosphatase, tissue-nonspecific isozyme (Homo sapiens, UniProt P05186); test: TNAP enzyme inhibition by screening hits, dose response, selectivity assay for mouse IAP inhibitor project, biochemical, human TNAP, uHTS hits (AID 488906); format: functional
T7 sequence (P05186 whole entry): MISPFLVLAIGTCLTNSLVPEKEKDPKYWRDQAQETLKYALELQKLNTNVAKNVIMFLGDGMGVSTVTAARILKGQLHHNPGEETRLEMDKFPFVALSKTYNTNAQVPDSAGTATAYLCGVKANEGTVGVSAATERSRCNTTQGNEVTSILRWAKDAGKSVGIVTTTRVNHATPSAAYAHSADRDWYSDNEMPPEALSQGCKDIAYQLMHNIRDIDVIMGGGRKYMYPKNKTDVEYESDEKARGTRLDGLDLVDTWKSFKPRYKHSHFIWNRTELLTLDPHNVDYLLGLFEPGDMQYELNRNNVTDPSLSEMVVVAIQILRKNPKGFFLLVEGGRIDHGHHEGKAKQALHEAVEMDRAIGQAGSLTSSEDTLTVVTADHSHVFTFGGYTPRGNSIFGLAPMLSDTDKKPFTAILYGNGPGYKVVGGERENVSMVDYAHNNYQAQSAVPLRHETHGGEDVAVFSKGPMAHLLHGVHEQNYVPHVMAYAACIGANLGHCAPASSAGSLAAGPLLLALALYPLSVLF

[18] = molecular target: FAD-linked sulfhydryl oxidase ALR (Homo sapiens, UniProt P55789); test: ALR-catalysed DTT oxidation blockers – biochemical, H2O2 detection, luminescence, cherry-pick, dose response (AID 493248)
Sequence of FAD-linked sulfhydryl oxidase ALR (P55789 whole entry): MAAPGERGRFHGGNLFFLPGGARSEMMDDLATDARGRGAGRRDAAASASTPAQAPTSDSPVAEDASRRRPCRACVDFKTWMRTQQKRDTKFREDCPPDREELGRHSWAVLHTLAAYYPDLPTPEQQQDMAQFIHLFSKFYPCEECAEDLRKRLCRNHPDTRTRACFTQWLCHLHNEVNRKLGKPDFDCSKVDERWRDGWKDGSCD

[19] = molecular target: Intestinal-type alkaline phosphatase (Mus musculus, UniProt P24822); test: PubChem AID 488785; format: functional
Sequence of Intestinal-type alkaline phosphatase (Mus musculus, UniProt P24822) (P24822 whole entry): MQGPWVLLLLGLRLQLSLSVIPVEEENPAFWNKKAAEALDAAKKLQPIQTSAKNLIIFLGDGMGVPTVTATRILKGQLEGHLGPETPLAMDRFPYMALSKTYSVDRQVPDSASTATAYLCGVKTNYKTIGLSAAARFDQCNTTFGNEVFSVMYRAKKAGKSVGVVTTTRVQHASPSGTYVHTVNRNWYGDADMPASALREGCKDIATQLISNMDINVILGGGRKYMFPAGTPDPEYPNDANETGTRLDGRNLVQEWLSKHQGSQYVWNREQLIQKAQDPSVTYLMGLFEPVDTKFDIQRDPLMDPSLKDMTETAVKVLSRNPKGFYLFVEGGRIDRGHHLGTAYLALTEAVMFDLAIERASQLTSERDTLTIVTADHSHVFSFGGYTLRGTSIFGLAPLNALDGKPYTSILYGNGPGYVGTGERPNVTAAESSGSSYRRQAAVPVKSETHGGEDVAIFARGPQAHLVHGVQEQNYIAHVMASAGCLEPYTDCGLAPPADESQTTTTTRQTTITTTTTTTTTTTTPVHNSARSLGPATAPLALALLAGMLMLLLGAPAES

[20] = molecular target: Intestinal-type alkaline phosphatase (Homo sapiens, UniProt P09923); test: inhibition of human intestinal alkaline phosphatase – biochemical, dose response (AID 488876); format: functional
Sequence of Intestinal-type alkaline phosphatase (Homo sapiens, UniProt P09923) (P09923 whole entry): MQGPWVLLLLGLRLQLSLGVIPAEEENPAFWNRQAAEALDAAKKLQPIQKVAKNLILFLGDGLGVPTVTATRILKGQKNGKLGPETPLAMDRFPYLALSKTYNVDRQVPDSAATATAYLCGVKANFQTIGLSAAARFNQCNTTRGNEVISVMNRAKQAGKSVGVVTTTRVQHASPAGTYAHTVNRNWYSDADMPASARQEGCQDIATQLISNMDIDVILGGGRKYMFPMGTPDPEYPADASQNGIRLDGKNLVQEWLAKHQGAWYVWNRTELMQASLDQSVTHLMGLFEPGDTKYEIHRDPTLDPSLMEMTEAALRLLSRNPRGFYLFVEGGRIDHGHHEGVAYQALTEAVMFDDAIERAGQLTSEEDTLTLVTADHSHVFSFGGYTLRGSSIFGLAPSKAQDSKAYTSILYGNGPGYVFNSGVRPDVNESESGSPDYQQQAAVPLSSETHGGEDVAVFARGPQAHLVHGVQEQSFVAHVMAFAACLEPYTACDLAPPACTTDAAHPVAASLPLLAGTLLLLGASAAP

[21] = Luminescence Cell-Based Dose Retest to Confirm Inhibitors of Cancer Stem Cells. [Related pubchem assays (depositor defined):AID2717, AID2721]; format: functional; details: Homo sapiens
cells [22] = format: functional

Sequence of DNA damage-inducible transcript 3 protein (P35639 whole entry): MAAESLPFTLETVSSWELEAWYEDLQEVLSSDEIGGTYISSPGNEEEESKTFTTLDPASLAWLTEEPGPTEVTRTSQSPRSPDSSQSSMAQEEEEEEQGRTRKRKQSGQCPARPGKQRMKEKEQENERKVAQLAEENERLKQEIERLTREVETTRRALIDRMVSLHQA

## CN1CCN(CCC=C2c3ccccc3Sc3ccc(S(=O)(=O)N(C)C)cc32)CC1
Vero [1]
  CC50: 19.7 µM (active)
Vero [2]
  IC50: > 25 µM (active)

## CCOC(=O)c1sc(NN=C2C(=O)NC(=O)NC2=O)c(C(=O)OCC)c1C
[3]
  Absolute IC50 (CHOP): 10 µM

## O=C(CSc1nnc(COc2ccccc2)o1)N1CCN(c2ccccc2)CC1
Troponin, cardiac muscle
  EC50: > 71.5 µM (inactive)

## COC(=O)c1nc(N)sc1-c1ccc(Cl)c(Cl)c1
CAAX prenyl protease 2 [4]
  AC50: 21.3 µM (active)
CAAX prenyl protease 2 [5]
  AC50: 11.6 µM (active)

## COc1cc2nc(N(CCCN(C)C)C(=O)c3ccc(S(=O)(=O)N4CCc5ccccc5C4)cc3)sc2cc1OC
Cells [6]
  EC50: 0.569 µM (active)
[7]
  IC50: 8.3 µM (active)
[8]
  EC50: > 60 µM (not active)
Bcl-2-related protein A1
  IC50: > 20 µM (inactive)
[9]
  EC50: < 0.1 µM (active)
[10]
  IC50: 8.69 µM (active)

## O=C(Cn1cc(C(=O)c2ccco2)c2ccccc21)Nc1ccccc1F
[11]
  AC50: 4.67 µM (active)
[12]
  AC50: 2.6 µM (active)
Protein Wnt-3a
  IC50: 4.08 µM (active)
[13]
  IC50: 1.79 µM (active)
[14]
  IC50: 1.33 µM (active)

## COc1cc(CN2CCN(CCCc3ccccc3)C(CCO)C2)cc(OC)c1O (centres undefined)
[15]
  IC50: 58.7 µM (inactive)

## COc1ccc(Nc2nnc(SCC(=O)/C=C3/N(C)c4ccccc4C3(C)C)s2)cc1
Protein skinhead-1
  IC50: > 100 µM (inactive)
[16]
  CC50: 7.33 µM (active)
Leucine aminopeptidase
  IC50: 21.1 µM (active)
[13]
  IC50: 1.64 µM (active)
[14]
  IC50: 1.72 µM (active)

## Cc1cc(O)c(Sc2nc[nH]n2)cc1NS(=O)(=O)c1ccc(Cl)cc1
[17]
  IC50: 92.6 µM (active)
[18]
  AC50: 1.52 µM (active)
[19]
  IC50: 5.84 µM (active)
[20]
  IC50: > 100 µM (inactive)

## Cc1ccc(/C=C2\SC(=S)N(CCC(=O)N3CCOCC3)C2=O)cc1
Vero [1]
  CC50: 14.5 µM (active)
Vero [2]
  IC50: > 25 µM (active)

## O=C(NC1CCCCC1)c1ccc2ccccc2c1O
Vero [2]
  IC50: 11.3 µM (active)

## C#CCOCCOCCOCCNc1nc(N2CCN(C(=O)CCCCCCCCCCNC(=O)Cn3cc(C[C@@H](C)O)nn3)CC2)nc(N2CCN(C(=O)CCCCCCCCCCNC(=O)[C@@H](CCSC)n3cc(CCO)nn3)CC2)n1
[17]
  IC50: 27.3 µM (active)
[19]
  IC50: 27.6 µM (active)
[20]
  IC50: 36.3 µM (active)

## C#CCOCCOCCOCCNc1nc(N2CCN(C(=O)CCCCCCCCCCNC(=O)Cn3cc(C[C@@H](C)O)nn3)CC2)nc(N2CCN(C(=O)CCCCCCCCCCNC(=O)[C@H](CCCCN)n3cc(C[C@@H](C)CC)nn3)CC2)n1
[17]
  IC50: 95.5 µM (active)
[21]
  AC50: 7.11 µM (active)
[19]
  IC50: 4.71 µM (active)
[20]
  IC50: > 100 µM (inactive)

## Cc1nnc(N/N=C/c2ccc(-c3ccccc3F)o2)n1N
Cells [22]
  IC50: 22.3 µM (active)
[15]
  IC50: > 80 µM (inactive)
